From PMC5532403, “Potential for a novel manganese porphyrin compound as adjuvant canine lymphoma therapy” (Cancer Chemotherapy and Pharmacology, 2017) come the findings set out here.

SMILES strings stand for the structures. “Also recorded” adds a separate entry of the source.

This data set relates to normal dogs. Description: Maximally tolerated dose / single-dose safety monitoring (pulse, blood pressure, drug reactions). The format is in vivo, dog. The following applies: for average heart rate at peak: 1 h after injection. As to the method:
Safety was assessed by evaluation of standard physical and laboratory parameters of systemic health. A full physical examination was performed prior to initiation of the study and on each treatment and sampling day. Indirect blood pressure monitoring was performed using Cardell Vet Monitor 9401 Blood Pressure Monitor. Pulse was quantified as heart beats per minute according to manual counts, as well as quantified with a blood pressure monitor. There was good correlation between pulse rates counted with manual methods compared to the blood pressure monitor (Figure S1). Standard laboratory assessments (complete blood cell count, biochemistry panel, urinalysis) were repeated throughout the phases of the study to assess systemic health.
Thus, 1 mg/kg was selected as a safe initial dose for the MTD and single-dose PK studies in this work.

Turning to `CCCCOCC[n+]1ccccc1-c1c2nc(c(-c3cccc[n+]3CCOCCCC)c3ccc([n-]3)c(-c3cccc[n+]3CCOCCCC)c3nc(c(-c4cccc[n+]4CCOCCCC)c4ccc1[n-]4)C=C3)C=C2.[Mn+3]` [MnBuOE, Mn(III) meso-tetrakis (N-n-butoxyetylpyridium-2-yl) porphyrin], for the setting “0.25 mg/kg sc”, the “heart rate following injection” value is recorded as 104–116 beats per minute, the “pulse 24 h post-injection” value was “did not alter pulse rate 24 h post-injection; also recorded: normalized by 24 h” and the tachycardia grade entry is listed as “did not induce a clinical tachycardia; also recorded: mild increase in heart rate”. Further, where the note is “0.25 mg/kg sc with premedication”, the “anaphylactic or local drug reactions” value was “No anaphylactic or local drug reactions were observed”. For the setting “0.5 mg/kg sc”, the “local drug reaction at the injection site” value is listed as “No local drug reaction at the injection site was noted”, the “pulse 24 h post-injection” value is reported as “remained slightly increased” and the tachycardia grade result was “mild to moderate tachycardia”. In addition, under “0.5 mg/kg sc, one dog”, the “average heart rate at peak” value is 144 beats per minute. Besides, the anaphylactic reaction entry (0.5 mg/kg sc, one dog, pre-administration of diphenhydramine, famotidine, prednisone) is “did not occur”. For the same molecule, under “1 mg/kg sc”, the “blood pressure change with tachycardia” value is reported as “not associated with changes in blood pressure”, the “local drug reactions in the subcutaneous site of injection” value is reported as “occurred with two of the dogs”, the persistence of tachycardia entry is “at least 6 h” and the “pulse 24 h post-injection” value was “remained increased compared to resting heart rates”. Under “1 mg/kg sc”, the tachycardia grade entry is “severe sinus tachycardia” and the “average heart rate at peak” value worked out at 210 beats per minute. Under “1 mg/kg sc, following injection”, the “time to development of acute anaphylactic drug reaction” value lay in the range of 15 to 20 min. In addition, the acute drug reaction entry (1 mg/kg sc, no premedication) was “acute anaphylactic drug reaction; also recorded: induced an anaphylactic drug reaction”. In addition, the “maximum tolerated dose (MTD)” value (sc, dogs, with premedication (anti-histamines, steroids)) came out at 0.25 mg/kg. Moreover, the “indirect blood pressure after single dose” value (single sc dose, Supplemental Fig. 2) is “subclinical fluctuations in recorded indirect blood pressures”.
